Assays:
Tetrahymena pyriformis = assay: 48 h IGC50 (-log10 mol/L); higher = more toxic
Pimephales promelas = assay: 96 h LC50 (-log10 mol/L); higher = more toxic

Compound | 48 h IGC50 (-log10 mol/L) (Tetrahymena pyriformis) | 96 h LC50 (-log10 mol/L) (Pimephales promelas)
c1ccc2cnncc2c1 | 2.66 | 3.11
N#CCC#N | 3.22 | 5.07
Cc1ccc(N)c([N+](=O)[O-])c1 | 3.37 | 3.79
O=C(c1ccccc1)c1ccncc1 | 2.91 | 3.25
N#CCCl | 3.85 | 4.75
CCOC(=O)CC(=O)OCC | 2 | 4.02
C#CC(C)O (stereo unspecified) | 2.6 | 3.78
COCCN | 1.21 | 2.16
N#CCCCCCCC#N | 2.23 | 2.41
C=C(C)C(=O)OCCO | 1.92 | 2.76
CCNCc1ccccc1 | 3.22 | 3.37
C=CCc1ccc(O)c(OC)c1 | 3.42 | 3.83
CCCCOC(=O)CCC(=O)OCCCC | 3.51 | 4.71
CCCCCCCCc1ccc(N)cc1 | 5.43 | 6.23
CCCCCCCCN | 3.35 | 4.4
C=CC(N)=O | 2.19 | 2.79
CCCCCc1ccccc1 | 4.79 | 4.94
CCCC=O | 2.62 | 3.65
O=C(c1ccc(Br)cc1)c1cccnc1 | 3.82 | 4.11
CC(=O)CC(=O)c1ccccc1 | 3.57 | 5.17
NC(=O)c1ccc(Cl)cc1Cl | 2.64 | 3.3
CCCCCCCCO | 3.58 | 3.98

Compound | 48 h IGC50 (-log10 mol/L) (Tetrahymena pyriformis) | 96 h LC50 (-log10 mol/L) (Pimephales promelas)
CC(C)CC=O | 2.67 | 4.42
O=Cc1ccc(Cl)cc1 | 3.4 | 4.8
Cc1ccc(C)c(O)c1C | 3.28 | 4.22
Brc1ccc(Br)cc1 | 3.68 | 5.28
CCCCCCCCCCCO | 4.96 | 5.22
C=CCc1ccccc1O | 3.33 | 3.98
N#Cc1ccc([N+](=O)[O-])cc1 | 3.57 | 3.78
OCC(Br)CBr (stereo unspecified) | 2.51 | 3.49
c1ccc2occc2c1 | 2.89 | 3.93
CCCCCCCCBr | 4.87 | 5.36
CO | 0.334 | 0.056
c1ccccc1 | 2.88 | 3.44
O=Cc1cc(O)ccc1[N+](=O)[O-] | 3.33 | 3.6
CCOP(=O)(Cc1ccccc1)OCC | 2.57 | 2.83
Oc1c(Br)cc(Br)cc1Br | 4.91 | 4.71
CCOC(=O)c1ccccc1 | 2.99 | 4.25
COc1cc(OC)c(OC)cc1C=O | 2.9 | 3.6
CCCCCCC1CCC(=O)O1 (stereo unspecified) | 3.49 | 3.98
O=[N+]([O-])c1c(Cl)cc(Cl)c([N+](=O)[O-])c1Cl | 5.19 | 6.09
Cc1ccc(C)c(C)c1 | 3.78 | 4.19
O=Cc1ccc(Oc2ccccc2)cc1 | 4.26 | 4.63
CCOc1ccc(C=O)cc1 | 3.07 | 3.74

Compound | 48 h IGC50 (-log10 mol/L) (Tetrahymena pyriformis) | 96 h LC50 (-log10 mol/L) (Pimephales promelas)
C=CC(=O)OCC | 3.52 | 4.6
CCCCCCCC(C)=O | 3.66 | 3.97
CC(=O)OC(C)(C)C | 1.51 | 2.55
CCCCCOCCCCC | 4.09 | 4.71
CC(C)c1cccc(C(C)C)c1N | 3.76 | 4.1
Cc1cccc(Cl)n1 | 2.52 | 2.74
Nc1ccccc1 | 2.77 | 2.99
CC(C)C(O)C(C)C | 2.29 | 2.85
CCOC(=O)CCCCCCCCC(=O)OCC | 4.35 | 4.98
CCCCC=O | 2.98 | 3.83
COC(=O)c1cc(Cl)ccc1Cl | 3.81 | 4.17
CC(C)COC(=O)c1ccccc1C(=O)OCC(C)C | 4.44 | 5.49
O=[N+]([O-])c1ccc(F)cc1 | 3.1 | 3.7
CCOc1ccc(N)c([N+](=O)[O-])c1 | 3.76 | 3.85
Nc1cc([N+](=O)[O-])cc([N+](=O)[O-])c1 | 3.94 | 3.93
Oc1c(I)cc(I)cc1I | 5.67 | 5.59
O=Cc1ccc(O)cc1O | 3.52 | 4.02
Nc1ccc(F)cc1 | 3.59 | 3.82
C=CCO | 1.08 | 5.26
CC(=O)C(C)C | 1.83 | 2
C=CCC(O)C=C (stereo unspecified) | 3.25 | 3.41
CCCCOC(=O)/C=C/C(=O)OCCCC | 4.49 | 5.52

Compound | 48 h IGC50 (-log10 mol/L) (Tetrahymena pyriformis) | 96 h LC50 (-log10 mol/L) (Pimephales promelas)
C=CC(=O)OCC(C)O (stereo unspecified) | 3.65 | 4.59
O=c1cc(-c2ccccc2)oc2ccccc12 | 4.41 | 4.8
CCCC(C)=O | 1.78 | 1.84
N#CC(Br)Br | 5.4 | 5.56
O=[N+]([O-])c1cc([N+](=O)[O-])c(Cl)cc1Cl | 5.72 | 6.78
Cc1ccccn1 | 1.99 | 2.02
c1ccc2ncccc2c1 | 3.09 | 3.45
N#Cc1cc(Cl)ccc1N | 3.44 | 3.73
C#CC(C)(C)O | 1.69 | 1.41
CCN(CC)c1ccccc1 | 3.66 | 3.96
Cc1nc(C)c(C)o1 | 1.99 | 2.4
O=[N+]([O-])c1ncccc1O | 3.87 | 2.92
CCCCCC(=O)O | 2.79 | 2.84
CCc1ccccn1 | 2.13 | 2.41
C=CCOC(=O)C(=C)C | 2.32 | 5.11
Cc1cc(Cl)nc(N)n1 | 2.53 | 3.01
Cc1cc([N+](=O)[O-])ccc1N | 3.49 | 3.24
O=Cc1ccc(Cl)cc1Cl | 4.04 | 4.99
CCCCCO | 1.97 | 2.22
COC(=O)c1ccc([N+](=O)[O-])cc1 | 3.39 | 3.88
CC(O)CO (stereo unspecified) | 0.49 | 0.349
CC(=O)c1cccn1C | 2.31 | 2.9

Compound | 48 h IGC50 (-log10 mol/L) (Tetrahymena pyriformis) | 96 h LC50 (-log10 mol/L) (Pimephales promelas)
Oc1ccc(Cl)cc1Cc1cc(Cl)ccc1O | 6.09 | 5.94
C=Cn1c2ccccc2c2ccccc21 | 5.24 | 7.81
O=Cc1c(F)c(F)c(F)c(F)c1F | 3.82 | 5.25
O=C(O)CCCCC(=O)O | 2.39 | 3.18
Clc1nc(Cl)c(Cl)c(Cl)c1Cl | 4.71 | 5.73
CCCCOC(=O)CCCCC(=O)OCCCC | 3.79 | 4.85
OCC(Cl)(Cl)Cl | 2.54 | 2.82
COC(C)=O | 1.41 | 2.27
CCCCCCCCCC(C)=O | 4.54 | 5.05
CCCCC(CC)CO (stereo unspecified) | 3.17 | 3.66
CCC(C)=O | 1.25 | 1.35
C/C=C/C=O | 4.06 | 4.92
Oc1cccnc1Br | 3.15 | 2.57
C#CCO | 1.93 | 4.56
O=Cc1cc(Br)cc(Br)c1O | 4.65 | 5.52
CC(=O)Nc1cccc(O)c1 | 2.84 | 2.13
CC(=O)c1ccc(Cl)c(Cl)c1Cl | 4.34 | 5.05
C=COC(C)=O | 2.14 | 3.57
C=CC(=O)OCCO | 3.69 | 4.38
CC(C)(O)CCc1ccccc1 | 2.93 | 3.39

Source: EPA's aquatic toxicity sets
